Patent US20120165553A1, “IMMUNOSTIMULANT” (RIKEN, priority 2010, published 2012)

How the values were obtained:
macrophages [1] = assay: cytokine mRNA expression in macrophages stimulated with R848 (real time PCR); assay type: cell-based, mouse; conditions: 10 nM BL for 15 minutes, then R848 stimulation, RNA 1 hour later, relative to HPRT mRNA
Method: 3 mL of 3% thioglycolate medium (Difco Laboratories) was intraperitoneally administered to a BALB/c mouse (female, 8 to 12 weeks age), peritoneal cells were collected 3 days later and cultured in RPMI-1640 medium containing 10% fetal bovine serum (Cansera International Inc.), 5×10^−5M β-mercaptoethanol (Wako Pure Chemical Industries, Ltd.), 20 U/mL penicillin (Meiji Seika Kaisha, Limited) and 100 μg/mL streptomycin (Meiji Seika Kaisha, Limited) at 37° C. under the presence of 5% CO2. After culturing 1×10^6/mL of the peritoneal cells for 3 hours in a 6-well plate (2 mL/well), non-adherent cells were removed and adherent cells were tested as the macrophages. The macrophages were cultured for 15 minutes in the presence or absence of 10 nM BL, subsequently stimulated with R848 (InvivoGen) or LPS (Sigma-Aldrich Corporation) 100 ng/mL, and the RNA was collected 1 hour later using Rneasy Mini Kit (QIAGEN K. K.). Using a Primescript RT reagent kit (TAKARA BIO INC.), cDNA was synthesized from […] of the isolated RNA in accordance with the attached protocol and the real time PCR was carried out using Thermal Cycler Dice Real Time System II (TAKARA BIO INC.) to examine the changes of cytokine (IFN-α, IFN-β, IL-12 subunit p35, IL-12 subunit p40, TNF-α) mRNA expression. […]

[2] = test system: mouse spleen cells (T cells and B cells); assay: spleen cell proliferation caused by antigen stimulation (BrdU incorporation ELISA); assay type: cell-based; conditions: BL 10 nM; antigen 10 µg/mL of ovalbumin; cultured for 3 days; spleen cells of ovalbumin/aluminum hydroxide immunised BALB/c mouse; FIG. 1
Method: The effect of BL on the spleen cell proliferation caused by an antigen stimulation was examined.
A mixed solution (0.2 mL) of […] of ovalbumin (Sigma-Aldrich Corporation) and 4 mg of aluminum hydroxide (Thermo Scientific Pierce Protein Research Products) was intraperitoneally administered to a BALB/c mouse (female, 8 to 12 weeks old) and the spleen was collected 2 weeks later. Cells were isolated from the spleen and cultured in RPMI-1640 medium containing 10% fetal bovine serum (Cansera International Inc.), 5×10^−5M β-mercaptoethanol (Wako Pure Chemical Industries, Ltd.), 20 U/mL penicillin (Meiji Seika Kaisha, Limited) and 100 μg/mL streptomycin (Meiji Seika Kaisha, Limited) at 37° C. under the presence of 5% CO2. Cells to which BL (Brassino Co., Ltd.) was added in a concentration of 10 nM and cells to which BL was not added were respectively stimulated by an antigen ([…] of ovalbumin), cultured for 3 days and measured for the incorporated BrdU in the detection of proliferating spleen cells using a cell proliferation ELISA BrdU colorimetric kit (Roche Applied Science).

macrophages [3] = assay: cytokine mRNA expression in macrophages stimulated with LPS (real time PCR); assay type: cell-based, mouse; conditions: 10 nM BL for 15 minutes, then LPS stimulation, RNA 1 hour later, relative to HPRT mRNA
Method: 3 mL of 3% thioglycolate medium (Difco Laboratories) was intraperitoneally administered to a BALB/c mouse (female, 8 to 12 weeks age), peritoneal cells were collected 3 days later and cultured in RPMI-1640 medium containing 10% fetal bovine serum (Cansera International Inc.), 5×10^−5M β-mercaptoethanol (Wako Pure Chemical Industries, Ltd.), 20 U/mL penicillin (Meiji Seika Kaisha, Limited) and 100 μg/mL streptomycin (Meiji Seika Kaisha, Limited) at 37° C. under the presence of 5% CO2. After culturing 1×10^6/mL of the peritoneal cells for 3 hours in a 6-well plate (2 mL/well), non-adherent cells were removed and adherent cells were tested as the macrophages. The macrophages were cultured for 15 minutes in the presence or absence of 10 nM BL, subsequently stimulated with R848 (InvivoGen) or LPS (Sigma-Aldrich Corporation) 100 ng/mL, and the RNA was collected 1 hour later using Rneasy Mini Kit (QIAGEN K. K.). Using a Primescript RT reagent kit (TAKARA BIO INC.), cDNA was synthesized from […] of the isolated RNA in accordance with the attached protocol and the real time PCR was carried out using Thermal Cycler Dice Real Time System II (TAKARA BIO INC.) to examine the changes of cytokine (IFN-α, IFN-β, IL-12 subunit p35, IL-12 subunit p40, TNF-α) mRNA expression.
The mRNA amounts are shown for IFN-α in FIG. 3, IFN-β in FIG. 4, IL-12 subunit p35 in FIG. 5, IL-12 subunit p40 in FIG. 6 and TNF-α in FIG. 7. The mRNA amount in each Figure is indicated as the relative amount to the mRNA amount of HPRT, which is the housekeeping gene.

BALB/c mouse = assay: antigen (ovalbumin) specific antibody (IgG) production in mouse, serum ELISA; assay type: in vivo; conditions: BL 0.2, 1 and 5 mg/Kg of body weight intraperitoneally every other day; serum 2 weeks later; absorbance at 450 nm; FIG. 2
Method: A mixed solution (0.2 mL) of […] of ovalbumin (Sigma-Aldrich Corporation) and 4 mg of aluminum hydroxide (Thermo Scientific Pierce Protein Research Products) was intraperitoneally administered to a BALB/c mouse (female, 8 to 12 weeks old) and BL dissolved in 0.2 mL PBS (0, 0.2, 1 and 5 mg/Kg of body weight) was intraperitoneally administered every other day. The serum was isolated 2 weeks later and measured for the production of immunoglobulin (IgG) specific to the antigen (ovalbumin) using ELISA. ELISA was carried out using a biotinylated anti-mouse IgG antibody (Southern Biotechnology Associates Inc.) as the secondary antibody, streptavidin-HRP (Prozyme, Inc.) and a TMB Microwell Peroxidase Substrate (Kirkegaard & Perry Laboratories, Inc.) as the colorimetric substrate, and the absorbance at 450 nm was measured.

CC(C)[C@H](C)[C@@H](O)[C@H](O)[C@@H](C)[C@H]1CC[C@H]2[C@@H]3COC(=O)[C@H]4C[C@H](O)[C@H](O)C[C@]4(C)[C@H]3CC[C@]12C [BL, Brassinolide]
IFN-α mRNA expression induction (macrophages [1]; FIG. 3): enhancing
IFN-β mRNA expression induction (macrophages [1]; FIG. 4): enhancing
spleen cell proliferation induced by the antigen stimulation (incorporated BrdU) [2]: significantly promoted
IL-12 p35 mRNA expression induction (macrophages [3]; FIG. 5): enhancing
IL-12 p40 mRNA expression induction (macrophages [3]; FIG. 6): enhancing
TNF-α mRNA expression induction (macrophages [3]; FIG. 7): enhancing
antigen specific antibody (IgG) production induced by ovalbumin and aluminum hydroxide (BALB/c mouse): significantly promoted
